Data from patent US20250195681A1, “ANTI-GPC3 ANTIBODY DRUG CONJUGATE AND USE THEREOF” (DUALITY BIOLOGICS (SUZHOU) CO., LTD., priority 2022, published 2025).

Key:
[1] = tested on: NCI-N87; test: In vitro proliferation inhibition of small molecule payloads, CTG, 6 days (3.3); type: cell-based; settings: Homo sapiens, NCI-N87, 144 h, read-out: Abs-IC50 NCI-N87
Protocol: (§1) To detect the in vitro proliferation inhibitory activity of the drug compounds on NCI-N87 and Colo205 tumor cells. Cells were treated with different concentrations of the compounds in vitro, and after 6 days of culture, cell proliferation was detected using the CTG (CellTiter-Glo® Luminescent Cell Viability Assay, Promega, Cat. No.: G7558) reagent. The IC50 value was used to assess the in vitro activity of the compounds.
(§2) 1. Cell culture: NCI-N87 and Colo205 cells were cultured in RPMI-1640 medium containing 10% FBS.
(§3) 2. Cell preparation: NCI-N87 and Colo205 cells in the logarithmic growth phase were washed once with PBS, then digested with 2-3 mL of trypsin for 2-3 minutes. Once the cells were fully digested, 10-15 mL of cell culture medium was added to wash off the digested cells. The mixture was then centrifuged at 1000 rpm for 5 minutes, then the supernatant was discarded, and the cells were resuspended in 10-20 mL of cell culture medium to prepare a single-cell suspension.
(§4) 3. Cell plating: The single-cell suspension of NCI-N87 and Colo205 was mixed well, and the density of viable cells was adjusted to 6×10^4 cells/mL using a cell culture medium. The density-adjusted cell suspension was mixed well and added to a 96-well cell culture plate at 50 μL per well. The culture plate was incubated in an incubator for 18 hours (37° C., 5% CO2).
(§5) 4. Compound preparation: The compounds were dissolved in DMSO to prepare stock solutions with an initial concentration of 10 mM.
(§6) Eight concentrations of the small molecule compounds were prepared: 300, 100, 30, 10, 3, 1, 0.3, and 0.1 nM.
(§7) 5. Sample addition operation: The prepared samples at different concentrations were added to a culture plate, with two replicate wells for each sample. The culture plate was incubated in an incubator for 6 days (37° C., 5% CO2).
6. […]
(§8) 7. Plate reading operation: The 96-well cell culture plate was placed in a microplate reader, and the chemiluminescence was measured with the microplate reader.
(§9) Data analysis: The data were processed and analyzed using Microsoft Excel and GraphPad Prism 5.

[2] = tested on: Colo205; test: as above; type: cell-based; settings: Homo sapiens, COLO 205, 144 h, read-out: Abs-IC50 Colo205
Protocol: as §1, §2, §3, §4, §5, §6, §7
6. […]
as §8, §9

[3] = tested on: JIMT-1; test: In vitro proliferation inhibition of small molecule payloads, CTG, 6 days (3.2); type: cell-based; settings: Homo sapiens, JIMT-1, 144 h, read-out: JIMT-1 IC50
Protocol: as §1, with “NCI-N87, JIMT-1,” for “NCI-N87”, “MBA-MB-231” for “Colo205”
1. Cell culture: NCI-N87, JIMT-1, and MBA-MB-231 cells were cultured in RPMI-1640 medium containing 10% FBS.
2. Cell preparation: NCI-N87, JIMT-1, and MBA-MB-231 cells in the logarithmic growth phase were washed once with PBS, then digested with 2-3 mL of trypsin for 2-3 minutes. […]
as §8, §9
8. Data analysis: The cell viability was calculated using the formula: Vsample/Vvehicle control x 100% where Vsample represents the reading from the drug-treated group, and Vvehicle control represents the average value of the vehicle control group. GraphPad Prism software was used to plot the S-shaped dose-viability curve using a nonlinear regression model, and the IC50 values were calculated.

[4] = tested on: advanced liver cancer; settings: patients with high GPC3 expression; cited from earlier work
[5] = tested on: advanced liver cancer; settings: Phase II; cited from earlier work

CC[C@@]1(O)C(=O)OCc2c1cc1n(c2=O)Cc2c-1nc1cc(F)c(C)c3c1c2[C@@H](NC(=O)CCO)CC3 [Preparation Example 8]
IC50 [1]: 15.1 nM

CC[C@@]1(O)C(=O)OCc2c1cc1n(c2=O)Cc2c-1nc1cc(F)c(C)c3c1c2[C@@H](NC(=O)CO)CC3 [Preparation Example 9, DXd, reference compound]
IC50 [1]: 13.9 nM | IC50 [2]: 294 nM

CC[C@@]1(O)C(=O)OCc2c1cc1n(c2=O)Cc2c-1nc1cc(F)c(C)c3c1c2[C@@H](NC(=O)CCN)CC3 [Reference Example 1]
IC50 [3]: 36.2 nM

Codrituzumab
disease progression (in words) [4]: showed a trend of delayed disease progression | survival (in words) [5]: did not demonstrate a statistically significant improvement in survival
